Like-named read-outs stand apart in the source and are kept apart here.
Assay: Phase I clinical study, PK
Type: in vivo, human
Settings: patients; for Cmax / Tmax / AUC(0-t) / half-life: po, 200 mg/day; for AUC(0-t): read-out: AUC0-24; for half-life: read-out: t½ (converted)
Experimental: Phase I clinical research study of Compound A is studied as a treatment for patients with prostate cancer. All patients in the study receives Compound A at a once daily oral dose of 200 mg, 400 mg, 600 mg, 800 mg, or 1000 mg. Compound A in this study is provided as an SDD composition with HPMCAS-H. One cycle of treatment is 28 days of dosing.
PK parameters were measured from 4 subjects who were administered at 200 mg/day dose (Table 33). One patient discontinued before day 28 due to disease progression. 2 subjects received both abiraterone and enzalutamide prior treatments. 3 subjects received prior chemotherapy with taxanes.

[1] = male, human, in vivo, 200 mg/day oral SDD with HPMCAS-H, Day 1, N 4
[2] = male, human, in vivo, 200 mg/day oral SDD with HPMCAS-H, Day 28, N 3

SMILES: CC(C)(c1ccc(OCc2ccnc(NS(C)(=O)=O)n2)cc1)c1cc(Cl)c(OCCCl)c(C#N)c1 [Compound A, N-(4-((4-(2-(3-chloro-4-(2-chloroethoxy)-5-cyanophenyl)propan-2-yl)phenoxy)methyl)pyrimidin-2-yl)methanesulfonamide]
- Cmax [1]: 3300 ng/mL
- Tmax [1]: 6.5 h
- AUC(0-t) [1]: 53.9 µg·h/mL
- half-life [1]: 22 h
- Cmax [2]: 8020 ng/mL
- Tmax [2]: 6.7 h
- AUC(0-t) [2]: 147 µg·h/mL
- half-life [2]: 24.8 h
- concentration at 28 day (male, human, in vivo, 200 mg/day oral SDD with HPMCAS-H, Day 28, N 3, read-out: Clast): 4590 ng/mL
- Clast (200 mg/day oral SDD with HPMCAS-H, Day 1, N 4): 1,808 ng/mL
- time to steady state (repeat QD dosing 200 mg/day): after day 8

From patent US20240207264A1, “PHARMACEUTICAL COMPOSITIONS COMPRISING INHIBITORS OF THE ANDROGEN RECEPTOR AND USES THEREOF” (ESSA PHARMA INC., priority 2021, published 2024)
